{
  "source": "patent US20260373497A1",
  "about": "“MOLECULAR MACHINES STIMULATE INTERCELLULAR CALCIUM WAVES AND CAUSE MUSCLE CONTRACTION” (William Marsh Rice University, priority 2022, published 2026)",
  "key": {"HEK293 cells [1]": {"test_system": "HEK293 cells", "assay": "Pharmacological blocking of MM 1-induced calcium responses", "assay_type": "cell-based", "details": "role: inhibitor, MM 1 + light", "method": "FIGS. 14A-14J—Mechanistic study of MM-induced ICW. (a) Schematic of possible mechanisms by which calcium can enter the cytoplasm. Prepared with Biorender.com. (b) Confocal microscope images of HEK293 cells treated with MM 1, MitoTracker Green, ER Tracker Red, and CellMask Deep Red. Scale bars are both 20 μm and apply to the images in the same row. (c-h) Calcium waves elicited by MM 1-treated cells (c) in calcium-free PBS, (d) in RR (1 μM), (e) in Gd^3+ (50 μM), (f) after treatment of cells with Th (1 μM), (g) in Ry (100 μM), (h) in XeC (25 μM), (i) in U-73 (10 μM), (j) after pre-treatment of cells with Cyto D (2 μM). The solid line represents the calcium profiles averaged from six independent cells. The shaded region represents the standard error of the mean (n=6). Stimuli were presented after 30 s of imaging in each case, and the time of stimulus presentation is indicated by the vertical cyan line. […] All stimuli were delivered with a pulse width of 250 ms to a circular area of diameter 5 μm at a power ranging from 3.2×10^2 W cm^−2 to 5.1×10^2 W cm^−2. For all plots, the cyan line indicates the time of stimulus presentation. Controls and experimental groups were imaged and stimulated on the same day using the same conditions and with the same batch of cells. Error bars in the bar graphs represent the standard deviation of the mean of n=3 experiments (at least 6 stimulated cells per experiment). Statistical analyses were performed using a one-tailed Welch's t-test. * P-value<0.05, ** P-value<0.01, *** P-value<0.001, **** P-value<0.0001.\nImaging was conducted in imaging extracellular buffer (iECB; 119 mM NaCl, 5 mM KCl, 10 mM HEPES, 2 mM CaCl2, 1 mM MgCl2 (pH 7.2); 320 mOsm). Imaging in calcium-free medium was conducted in phosphate-buffered saline. Cells were prepared for imaging by seeding a 35 mm Ibidi imaging dish with ~50,000 cells in 1 mL of DMEM, and grown at 37 °C, 5% CO2 for 2 days. Prior to imaging, cells were incubated with dyes and/or molecules resuspended in complete growth medium at the appropriate concentration (MM 1 (8 μM), MM 2 (8 μM), MM 3 (24 μM), MM 4 (8 μM), Fluo-4 (2 μM)). MM and Fluo-4 were loaded into cells for 45 min. Cells treated with thapsigargin were exposed for 30 min after MM and Fluo-4 loading. Cells treated with organelle-targeting dyes were exposed for 5 min after MM loading. Ruthenium red and Gd^3+ were included in the imaging medium during stimulation and were associated with cells for 10 min prior to imaging. At the end of incubation, this medium was replaced with the iECB. Unless otherwise specified, all experiments were replicated in triplicate.\nPharmacological Experiments: In pharmacological blocking experiments, cells were loaded with MM and Fluo-4 as previously described. Typical imaging experiments in previously described extracellular buffer were then conducted as a positive control. Then, the imaging buffer was replaced, and the cells were treated as required for each experiment. After a brief recovery period, the cells were imaged again, and six different cells were stimulated. Experiments in calcium-free imaging buffer used phosphate buffered saline. Thapsigargin (Th: 1 μM) and Cytochalasin D (Cyto D; 2 μM) were incubated with cells in complete growth medium for 1 h (Th) or 2 h (Cyto D) before imaging. Ruthenium red (RR; 1 μM), gadolinium (Gd; 50 μM), ryanodine (Ry; 100 μM), xestospongin C (XeC; […]), and U-73122 (U-73; 10 μM) were administered directly into the imaging medium. Cells were incubated in the medium for ~5 min prior to imaging. Traces presented are representative results across at least six cells from single experiments, while bar graphs represent the average results across at least three distinct experiments."}, "HEK293 cells [2]": {"test_system": "HEK293 cells", "assay": "ROS scavengers on MM 1-induced calcium waves", "assay_type": "cell-based", "details": "melatonin 100 μM, thiourea 50 mM, L-ascorbic acid 2 mM; 1 h; MM 1, 4.5×10^2 W cm^−2", "method": "Normalized fluorescence intensity traces of HEK293 cells treated with MM 1 and Fluo-4 and administered (a) melatonin (Mel; 100 μM), (b) thiourea (ThioU; 50 mM), and (c) L-ascorbic acid (Vit C; 2 mM). The shaded region indicates the standard error of n=6 stimulation attempts. Dark traces indicate positive controls collected prior to treatment. Stimulation was administered at 4.5×10^2 W cm^−2. Cells were incubated with chosen ROS scavengers for 1 h prior to stimulation."}, "[3]": {"assay": "UV-Vis absorbance of motors in DMSO", "assay_type": "physicochemical", "from_the_text": "The UV-Vis spectrum of each motor was also acquired in DMSO (FIG. 37D) to ensure that the difference in absorbance at 400 nm was not the cause of larger or smaller responses."}, "C2C12 myotubes": {"test_system": "C2C12 myotubes", "assay": "C2C12 myotube contraction (image subtraction)", "assay_type": "cell-based, mouse", "method": "FIG. 35—Flow chart for the image subtraction process. First, the background is subtracted from the traces to account for drift during the course of the experiment (top row). After this, the traces are zeroed at the point of stimulation, and the area is calculated from the point of stimulation until the end of the experiment to yield the contraction magnitude. (bottom row).\nFIGS. 40A-40D—MMs induce contraction in C2C12 myotubes, a) Confocal microscopy images of Fluo-4 and b) image subtraction of brightfield images to highlight calcium release and contractile motion in three stimulated myotubes (indicated by the red arrows) immediately before stimulation (t=0) for 1.5 s with 400-nm light, as well as 10 s and 120 s after stimulation. Scale bar=30 μm. c) Magnitude of contraction of MM 1 compared to DMSO, MM 2, MM 3, and cells treated with 10 μM U-73122. d) Mechanism of skeletal muscle cell contraction.\nThis method yielded images where the pixel intensity corresponds to movement over the course of the experiment (FIG. 40C), allowing us to easily visualize and quantify contraction."}, "[4]": {"details": "cited from earlier work"}, "C2C12 myoblasts": {"test_system": "C2C12 myoblasts", "assay": "Pathway inhibitors on MM-induced calcium release in C2C12 myoblasts", "assay_type": "cell-based, mouse", "details": "role: inhibitor; for Effect on MM-induced calcium signaling: SQ22536 100 μM, cAMPS-Rp 200 μM", "method": "FIGS. 38A-38F—Calcium release in C2C12 myoblasts occurs by means of the IP3 pathway. Average normalized fluorescence intensity traces of C2C12 myoblasts before and after treatment with a) 10 μM U-73122 (PLC inhibitor), b) 100 μM gallein (GPCRβγ inhibitor), c) 1 μM FR900359 (GPCRα inhibitor), d) 200 μM cAMPS-Rp (cAMP antagonist, inhibits PKA activation), e) 100 μM SQ22536 (adenylyl cyclase inhibitor), and f) 1 μM nintedanib (RTK inhibitor).\nIt was determined that MMs activate the IP3 pathway by inhibiting key proteins along the pathway. If inhibition of a specific protein decreases the magnitude of the observed calcium responses, then it can be assumed that the targeted protein played an important role in propagating the calcium signaling pathway that was initiated by MMs. […] When both gallein and FR900359 are used simultaneously, a similar decrease of ~50% also occurs (FIG. 33). […] This may occur either through direct MM activation or indirectly through MM activation of a different signaling pathway. It is known that RTKs can also activate PLC (Bill and Vines, 2020).\nThe effect of cAMP pathway inhibition on the elicited calcium signaling responses was measured by using 100 μM SQ22536 to inhibit adenylyl cyclase (FIG. 38D) and 200 μM cAMPS-Rp (FIG. 38E), a cAMP antagonist that inhibits protein kinase A (PKA) activation. […] At this moment it cannot be concluded whether this effect is because MMs also activate the GPCRs associated with the cAMP pathway, or if inhibition of adenylyl cyclase and PKA naturally affects normal calcium signaling pathways, regardless of MM stimulation."}},
  "data": [
    {"compound": "[Gd+3]", "note": "[Gd^3+, gadolinium]", "values": [
      {"measurement": "Effect on MM-induced calcium responses", "setting": "HEK293 cells [1]; Gd^3+ 50 μM", "value": "did not affect the observed responses"}
    ]},
    {"compound": "O=C1O[C@H]([C@@H](O)CO)C(O)=C1O", "note": "[L-ascorbic acid]", "values": [
      {"measurement": "Effect of ROS scavenger on MM induced ICW", "setting": "HEK293 cells [2]", "value": "does not affect MM induced ICW"}
    ]},
    {"compound": "CN(C)CCNc1ccc2c(c1)Sc1ccccc1C2=C1CCc2ccc3ccccc3c21", "note": "[MM 2 (fast, bidirectional)]", "values": [
      {"measurement": "Absorbance at 400 nm", "setting": "[3]", "value": "nearly identical absorbances at 400 nm"},
      {"measurement": "Myotube contraction", "setting": "C2C12 myotubes; 400-nm light 1.5 s, image subtraction", "value": "Strong cellular contraction did not occur"},
      {"measurement": "Rotation rate", "setting": "[4]", "value": "~ 3 MHz"}
    ]},
    {"compound": "Nc1ncnc2c1ncn2C1CCCO1", "note": "(stereo not shown) [SQ22536]", "values": [
      {"measurement": "Effect on MM-induced calcium signaling", "setting": "C2C12 myoblasts", "value": "small reduction in calcium signaling"}
    ]},
    {"compound": "COc1ccc2c(c1)CC[C@@H]1[C@@H]2CC[C@]2(C)[C@@H](NCCCCCCN3C(=O)C=CC3=O)CC[C@@H]12", "note": "[U-73122, reference compound]", "values": [
      {"measurement": "Effect on MM-induced calcium responses", "setting": "C2C12 myoblasts; U-73122 10 μM", "value": "completely abolished"},
      {"measurement": "Myotube contraction magnitude with PLC inhibitor", "setting": "C2C12 myotubes; role: inhibitor, U73 (10 μM) with MM 1 + light", "value": "contraction magnitude equal to that of the DMSO control"}
    ]},
    {"compound": "Nc1ncnc2c1ncn2[C@@H]1O[C@@H]2CO[P@@](O)(=S)O[C@H]2[C@H]1O", "note": "[cAMPS-Rp]", "values": [
      {"measurement": "Effect on MM-induced calcium signaling", "setting": "C2C12 myoblasts", "value": "small reduction in calcium signaling"}
    ]},
    {"compound": "C=C1[C@@H](C)[C@H]2[C@H](Cc3ccccc3)NC(=O)[C@]23[C@H](OC(C)=O)/C=C/[C@@](C)(O)C(=O)[C@@H](C)C/C=C/[C@H]3[C@@H]1O", "note": "[cytochalasin D]", "values": [
      {"measurement": "Effect on MM-induced calcium responses", "setting": "HEK293 cells [1]; cytochalasin D 2 μM, P=0.01762", "value": "inhibited"}
    ]},
    {"compound": "O=C1OC2(c3ccccc31)c1ccc(O)c(O)c1Oc1c2ccc(O)c1O", "note": "[gallein]", "values": [
      {"measurement": "inhibition at 100 µM", "setting": "C2C12 myoblasts; Mus musculus, C2C12, gallein 100 μM, read-out: Reduction in observed calcium response", "value": "~50", "unit": "%"}
    ]},
    {"compound": "COc1ccc2[nH]cc(CCNC(C)=O)c2c1", "note": "[melatonin]", "values": [
      {"measurement": "Effect of ROS scavenger on MM induced ICW", "setting": "HEK293 cells [2]", "value": "does not affect MM induced ICW"}
    ]},
    {"compound": "COC(=O)c1ccc2c(c1)NC(=O)/C2=C(\\Nc1ccc(N(C)C(=O)CN2CCN(C)CC2)cc1)c1ccccc1", "note": "[nintedanib]", "values": [
      {"measurement": "Effect on MM-induced calcium responses", "setting": "C2C12 myoblasts; nintedanib 1 μM (RTK inhibition)", "value": "no decrease in magnitude of the elicited calcium responses"}
    ]},
    {"compound": "N.N.N.N.N.N.N.N.N.N.N.N.N.N.[Cl-].[Cl-].[Cl-].[Cl-].[Cl-].[Cl-].[O-2].[O-2].[Ru+3].[Ru+3].[Ru+4]", "note": "[ruthenium red]", "values": [
      {"measurement": "Effect on MM-induced calcium responses", "setting": "HEK293 cells [1]; ruthenium red 1 μM (10 μM in Table 2)", "value": "did not decrease the magnitude of MM-induced calcium responses"}
    ]},
    {"compound": "C/C=C(/C)C(=O)O[C@H]1C(C)=C2[C@H]([C@@H]1OC(=O)CCCCCCC)[C@@](C)(OC(C)=O)C[C@H](OC(=O)CCC)[C@@]1(O)[C@H]2OC(=O)[C@@]1(C)O", "note": "[thapsigargin]", "values": [
      {"measurement": "Effect on MM-induced calcium responses", "setting": "HEK293 cells [1]; thapsigargin 1 μM, P=0.00257", "value": "did not show any measurable calcium flux upon light stimulation"}
    ]},
    {"compound": "NC(N)=S", "note": "[thiourea]", "values": [
      {"measurement": "Effect of ROS scavenger on MM induced ICW", "setting": "HEK293 cells [2]", "value": "does not affect MM induced ICW"}
    ]},
    {"compound": "C1CCC[C@H]2CCCN3CC[C@@H](CCCCCC[C@@H]4CCCN5CC[C@@H](CC1)O[C@@H]45)O[C@@H]23", "note": "[xestospongin C]", "values": [
      {"measurement": "Effect on MM-induced calcium responses", "setting": "HEK293 cells [1]; XeC 25 μM (20 μM in Table 2), P=0.0167", "value": "significantly diminished the strength of cellular responses to MM"}
    ]},
    {"compound": "FR900359", "values": [
      {"measurement": "Reduction in observed calcium response", "setting": "C2C12 myoblasts; FR900359 1 μM", "value": "~ 50%"}
    ]},
    {"compound": "ryanodine", "values": [
      {"measurement": "Effect on MM-induced calcium response amplitude", "setting": "HEK293 cells [1]; ryanodine 100 μM", "value": "no effect on response amplitude"}
    ]}
  ]
}
